Test results reported in PubChem BioAssay (NCI).
Values joined by “and” are separate entries in the source; they are usually repeats but may differ in a detail not shown here. Equal values may be shown once.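 How tested: cells in 96-well plates exposed to compound for 48 hours at five concentrations. GI50 is the concentration that inhibits growth by half. TGI: concentration producing complete growth inhibition.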

Experiments:
Assay in all cases: inhibition of tumour cell growth, NCI panel, 48 h
[1] = system: MALME-3M melanoma
[2] = system: OVCAR-8 ovarian
[3] = system: BT-549 breast
[4] = system: RXF 393 renal
[5] = system: MDA-MB-435
[6] = system: TK-10 renal
[7] = system: SF-268 CNS
[8] = system: HCC-2998 colon
[9] = system: MCF7 breast
[10] = system: KM12 colon

SMILES	TGI [1]	TGI [2]	TGI [3]	TGI [4]	TGI [5]	TGI [6]	TGI [7]	TGI [8]	TGI [9]	TGI [10]	GI50 [2]	GI50 [3]	GI50 [6]	GI50 [7]	GI50 [9]	GI50 [10]	GI50 [1]
COc1cc(/C=C2\N=C(c3ccccc3)N(c3ccc(C(=O)c4ccccc4)cc3N3C(=O)/C(=C/c4cc(OC)c(OC)c(OC)c4)N=C3c3ccccc3)C2=O)cc(OC)c1OC	41.3 µM	73.2 µM	66.4 µM	34.9 µM	18.5 µM	42.3 µM	> 100 µM	11.2 µM	42.1 µM	48.9 µM	–	–	–	–	–	–	–
O=c1c2cc(Cl)ccc2n2nnc3ccc(NCCNCCO)c1c32	5.67 µM	2.53 µM	5.22 µM	3.45 µM	2.36 µM	6.24 µM	8.86 µM	2.7 µM	9.46 µM	3.48 µM	–	–	–	–	–	–	–
CC(C)(CN1CCCCC1)C(=O)CC(SCCS(=O)(=O)O)c1ccc(Cl)c(Cl)c1 (stereo unspecified)	22.1 µM	8.45 µM	13 µM	11.2 µM	4.57 µM	18.9 µM	15.1 µM	26.2 µM	15.3 µM	23 µM	–	–	–	–	–	–	–
O=C(NC(Cc1c[nH]c2ccccc12)C(=O)O)/C(=C/c1ccccc1)NC(=O)c1ccccc1 (stereo unspecified)	> 100 µM	> 100 µM	> 100 µM	> 100 µM	> 100 µM	> 100 µM	> 100 µM	> 100 µM	> 100 µM	> 100 µM	–	–	–	–	–	–	–
Cc1ccc2c(=O)c3c(O)c4c(cc3n(C)c2c1)OC(C)(C)C=C4	> 10 µM	> 10 µM	> 10 µM	> 10 µM	> 10 µM	> 10 µM	> 10 µM	> 10 µM	> 10 µM	> 10 µM	–	–	–	–	–	–	–
CC(CN(C)C)C(O)(c1ccccc1)c1ccccc1 (stereo unspecified)	> 100 µM	> 100 µM	> 100 µM	> 100 µM	> 100 µM	> 100 µM	> 100 µM	93.2 µM	> 100 µM	> 100 µM	–	–	–	–	–	–	–
Cc1ccc(N=Nc2cc(=O)[nH]c(=O)[nH]2)cc1C	27.5 µM	30.9 µM	26.6 µM	24.9 µM	26.8 µM	34.3 µM	42.6 µM	19.9 µM	29.4 µM	24.5 µM	–	–	–	–	–	–	–
Cc1ccc2c3ccc4c(c3n(C)c2c1)C(=O)C=CC4=O	6.01 µM	> 10 µM	> 7.22 µM	> 7.63 µM	> 10 µM	> 10 µM	> 10 µM	> 10 µM	> 6.18 µM	> 10 µM	–	–	–	–	–	–	–
COC(=O)[C@]12CCC(=O)N1[C@H](C(=O)O)Cc1c2[nH]c2ccccc12	> 100 µM	> 100 µM	> 100 µM	> 100 µM	> 100 µM	> 100 µM	> 100 µM	> 100 µM	> 100 µM	> 100 µM	–	–	–	–	–	–	–
OCC1=C[C@@](COCc2ccccc2)(OCc2ccccc2)[C@@H](OCc2ccccc2)[C@@H]1OCc1ccccc1	44.6 µM	> 100 µM	98.1 µM	18.4 µM	27.4 µM	> 100 µM	> 100 µM	32.3 µM	23.8 µM	56.6 µM	–	–	–	–	–	–	–
CNc1ccc([N+](=O)[O-])cc1C(=O)N1CCC[C@H]1CO	> 100 µM	> 100 µM	> 100 µM	> 100 µM	> 100 µM	> 100 µM	> 100 µM	> 100 µM	> 100 µM	> 100 µM	–	–	–	–	–	–	–
CC[N+]1(C)CCC(O)(/C=C/c2ccc(Cl)c(Cl)c2)C(C(=O)/C=C/c2ccc(Cl)c(Cl)c2)C1 (stereo unspecified)	4.6 µM	8.97 µM	7.44 µM	4.02 µM	5.01 µM	6.58 µM	8.54 µM	3.96 µM	6.52 µM	6.69 µM	–	–	–	–	–	–	–
C1CN(C23OC4(N5CCOCC5)C5C6CC(C7C6C4C72)C53)CCO1 (stereo unspecified)	> 100 µM	> 100 µM	> 100 µM	> 100 µM	> 100 µM	> 100 µM	> 100 µM	> 100 µM	> 100 µM	> 100 µM	–	–	–	–	–	–	–
O=c1oc2ccccc2cc1-c1nc2ccccc2s1	9.2 µM	20.4 µM	46.4 µM	24.2 µM	18.1 µM	33.5 µM	25.2 µM	> 100 µM	6.53 µM	> 54.3 µM	–	–	–	–	–	–	–
COC(=O)C1CC(C=O)=C(SC)N1 (stereo unspecified)	> 50 µM	> 50 µM	> 50 µM	> 50 µM	> 50 µM	> 50 µM	> 50 µM	> 50 µM	> 50 µM	> 50 µM	–	–	–	–	–	–	–
O=C(n1c(=O)n(-c2ccc([N+](=O)[O-])cc2)c(=O)n1C(=O)C(Cl)(Cl)Cl)C(Cl)(Cl)Cl	> 100 µM	> 100 µM	> 100 µM	> 100 µM	> 100 µM	> 100 µM	> 100 µM	> 100 µM	> 100 µM	> 100 µM	–	–	–	–	–	–	–
CCCCCCCCCC[C@@H](O)[C@H]1CC[C@@H]([C@H]2CC[C@H]([C@H](O)CCCCCCCCCC[C@@H]3CC(CC(C)=O)C(=O)O3)O2)O1 (stereo partly specified)	37.5 µM	> 100 µM	–	24.8 µM	> 100 µM	> 100 µM	> 100 µM	62.5 µM	> 100 µM	> 100 µM	22.7 µM	23.7 µM	26.9 µM	27.4 µM	19.8 µM	24.2 µM	–
Fc1ccccc1C1SCC2=Nc3ccccc3CN21 (stereo unspecified)	–	> 100 µM	> 100 µM	> 100 µM	> 100 µM	> 100 µM	> 100 µM	> 100 µM	> 100 µM	> 100 µM	–	–	–	–	–	–	–

SMILES	TGI [1]	TGI [2]	TGI [3]	TGI [4]	TGI [5]	TGI [6]	TGI [7]	TGI [8]	TGI [9]	TGI [10]	GI50 [2]	GI50 [3]	GI50 [6]	GI50 [7]	GI50 [9]	GI50 [10]	GI50 [1]
CCCCCCCCCCCOCCC1C(C(C)OCCN2CCCC2)OC2OC(C)(C)OC21 (stereo unspecified)	3.08 µM	11.3 µM	7.76 µM	7.3 µM	3.51 µM	6.6 µM	16 µM	4.83 µM	6.58 µM	1.78 µM	–	–	–	–	–	–	–
CC(C)=CCC/C(C)=C/CCC1(C)C2COC(=O)C21 (stereo unspecified)	> 100 µM	–	> 100 µM	> 100 µM	> 100 µM	> 100 µM	> 100 µM	> 100 µM	> 100 µM	> 100 µM	–	–	–	–	–	–	–
CCCNC(=O)Cn1c(-c2ccccc2)cc2ccccc21	> 100 µM	> 100 µM	> 100 µM	57.3 µM	> 100 µM	> 100 µM	> 100 µM	> 100 µM	> 100 µM	> 100 µM	–	–	–	–	–	–	–
C=C(Cl)C(=C)CCC(Cl)C(C)(C)Cl (stereo unspecified)	> 100 µM	–	> 100 µM	> 100 µM	> 100 µM	> 100 µM	> 100 µM	> 100 µM	> 100 µM	> 100 µM	–	–	–	–	–	–	–
Cc1ccc(Oc2cc(C)ccc2P(=O)(O)O)cc1	–	> 100 µM	> 100 µM	> 100 µM	> 100 µM	> 100 µM	> 100 µM	> 100 µM	> 100 µM	> 100 µM	–	–	–	–	–	–	–
CCOC(=O)Cn1c(C)nc2nn(Cc3ccccc3)cc2c1=O	> 100 µM	> 100 µM	> 100 µM	> 100 µM	> 100 µM	> 100 µM	> 100 µM	> 100 µM	> 100 µM	> 100 µM	–	–	–	–	–	–	–
CCn1c2ccccc2c2cc(NC(=O)c3c(C)[nH]c(=O)[nH]c3=S)ccc21	> 100 µM	> 100 µM	> 100 µM	> 100 µM	84 µM	> 100 µM	–	> 100 µM	> 100 µM	64.5 µM	–	–	–	–	–	–	–
CC1=C(C(=O)OC(C)C)C(c2cccc([N+](=O)[O-])c2)C(C(=O)OC(CO[N+](=O)[O-])CO[N+](=O)[O-])=C(C)N1 (stereo unspecified)	> 100 µM	> 100 µM	14.7 µM	58.1 µM	15.3 µM	> 100 µM	22.7 µM	18.3 µM	1.12 µM	12.9 µM	–	–	–	–	–	–	–
CCOC(=O)c1c(C)n(CCN2CCN(C)CC2)c2ccc(OC)cc12	74.6 µM	> 100 µM	> 100 µM	> 100 µM	56.2 µM	> 100 µM	> 100 µM	30.7 µM	> 100 µM	> 100 µM	–	–	–	–	–	–	–
COc1ccc(/C=C(\C#N)c2nc(-c3cc4ccccc4oc3=O)cs2)cc1	91.3 µM	44.4 µM	30.3 µM	45.4 µM	> 100 µM	65.6 µM	83.4 µM	> 100 µM	> 100 µM	> 100 µM	–	–	–	–	–	–	–
O=C(O)c1cc2c(cc1CC(Cc1ccccc1)C(=O)O)CCC2 (stereo unspecified)	> 100 µM	> 100 µM	> 100 µM	> 100 µM	> 100 µM	> 100 µM	> 100 µM	> 100 µM	> 100 µM	> 100 µM	–	–	–	–	–	–	–
Cc1cc2nnn(C3CCCO3)c2cc1C (stereo unspecified)	> 100 µM	> 100 µM	> 100 µM	> 100 µM	> 100 µM	> 100 µM	> 100 µM	> 100 µM	> 100 µM	–	–	–	–	–	–	–	–
CCCCC[C@@H]1OC(=O)[C@@]2(CC3c4ccccc4C2c2ccccc23)[C@H]1C(=O)OC	> 100 µM	> 100 µM	> 100 µM	> 100 µM	> 100 µM	> 100 µM	> 100 µM	> 100 µM	> 100 µM	> 100 µM	–	–	–	–	–	–	–
Oc1cc(Br)cc2cc(Br)cnc12	58.2 µM	> 100 µM	> 100 µM	10.9 µM	> 100 µM	> 100 µM	> 100 µM	57.3 µM	> 100 µM	> 100 µM	–	–	–	–	–	–	–
Nc1ncnc2c(C3OC(CO)C(O)C3O)c[nH]c12 (stereo unspecified)	0.0868 µM and 0.0571 µM	0.0845 µM and 0.771 µM	0.237 µM and 0.297 µM	0.126 µM and 0.0746 µM	0.182 µM and 0.125 µM	0.471 µM	0.559 µM	0.247 µM and 0.343 µM	0.0807 µM	0.396 µM and 0.465 µM	–	–	0.0163 µM	–	–	–	0.011 µM
C=CC(=O)N1C/C(=C\c2ccc(F)cc2)C(=O)/C(=C/c2ccc(F)cc2)C1	2.41 µM	2.59 µM	1.2 µM	0.556 µM	1.29 µM	2.84 µM	0.622 µM	1.15 µM	1.42 µM	0.434 µM	–	–	–	–	–	–	–
COc1cc2c(cc1OCc1ccccc1)NC(=O)[C@@H]1C[C@@H](O)CN1C2=O	> 100 µM	> 100 µM	> 100 µM	> 100 µM	> 100 µM	> 100 µM	> 100 µM	> 100 µM	> 100 µM	> 100 µM	–	–	–	–	–	–	–
